In the supplement of paper PMC8882468:

Legend:
Test in all cases: CTG-3D luminescence at 96 h relative to day-0 seeding control (ratio to day 0); higher = more growth / less cytotoxicity; PDxO 3D drug screen, 96 h, CTG-3D normalised to day-0 seeding control.
HCI-016 = test system: HCI-016 (organoid from a triple-negative breast cancer xenograft)
HCI-011.E2 = test system: HCI-011.E2 (organoid from an ER-positive breast cancer xenograft)
HCI-005.E2 = test system: HCI-005.E2 (organoid from a breast cancer xenograft with a HER2-positive history)
HCI-019 = test system: HCI-019 (organoid from a triple-negative breast cancer xenograft)
HCI-003.E2 = test system: HCI-003.E2 (organoid from an ER-positive breast cancer xenograft)
HCI-025 = test system: HCI-025 (organoid from a breast cancer xenograft)

C=CCn1c(=O)c2cnc(Nc3ccc(N4CCN(C)CC4)cc3)nc2n1-c1cccc(C(C)(C)O)n1 [adavosertib]
CTG-3D luminescence at 96 h
Details	12.5 pM	0.00025 µM	0.005 µM	0.1 µM	1 µM	10 µM	100 µM	625 fM
HCI-011.E2, days in culture: 74	1.66	2.29	2.11	2.08	2.2	2.35	1.38	2.46
HCI-016, days in culture: 153	3.14	2.15	2.59	2.27	0.264	0.0723	0.0508	3.11
HCI-016, days in culture: 172	2.14	1.63	1.55	1.14	0.176	0.0497	0.0492	1.62
HCI-016, days in culture: 190	1.64	1.28	1.36	0.602	0.0834	0.0505	0.0792	1.02
HCI-016, days in culture: 199	1.57	1.35	1.53	1.52	0.172	0.0306	0.0372	1.43
HCI-019, days in culture: 110	2.05	1.58	1.23	1.52	0.377	0.536	0.502	2.37
HCI-019, days in culture: 131	2.63	3.93	2.52	2.25	0.386	0.381	0.4	3.56
HCI-019, days in culture: 152	2.43	2.43	3.28	1.42	0.511	0.452	0.519	2.53
HCI-025, days in culture: 172	2.76	1.83	3.85	2	1.8	0.188	0.128	1.79
HCI-025, days in culture: 209	1.68	1.93	1.69	1.36	1.03	0.124	0.157	2.05
HCI-025, days in culture: 218	1.7	1.86	1.94	1.75	1.05	0.215	0.0695	1.86

CTG-3D luminescence at 96 h
Details	12.5 pM	0.00025 µM	0.005 µM	0.1 µM	1 µM	10 µM	100 µM	625 fM
HCI-003.E2	2.18	2.35	2.25	2.28	1.54	0.668	0.388	2.01
HCI-005.E2	1.7	1.72	2.03	2.09	1.11	0.745	0.376	1.73
HCI-011.E2	1.73	1.67	1.49	1.89	1.41	1.73	1.51	1.62

CC[C@H](NC(=O)[C@H](C)NC)C(=O)N1C[C@@H](O)C[C@H]1Cc1c(-c2[nH]c3cc(F)ccc3c2C[C@@H]2C[C@H](O)CN2C(=O)[C@H](CC)NC(=O)[C@H](C)NC)[nH]c2cc(F)ccc12 [birinapant]
CTG-3D luminescence at 96 h
Details	12.5 pM	0.00025 µM	0.005 µM	0.1 µM	1 µM	10 µM	100 µM	625 fM
HCI-011.E2, days in culture: 74	2.25	2.3	1.91	1.82	1.85	1.48	1.22	2.46
HCI-016, days in culture: 153	2.99	2.23	2.64	2.39	2.94	2.86	0.41	2.37
HCI-016, days in culture: 172	2.25	1.67	1.82	1.23	1.56	1.24	0.122	1.58
HCI-016, days in culture: 190	1.66	1.27	1.52	1.09	1.38	1.36	0.309	0.99
HCI-016, days in culture: 199	1.54	1.36	1.44	1.52	1.54	1.23	0.204	1.7
HCI-019, days in culture: 110	1.9	2.21	1.18	0.993	0.634	1.01	0.351	1.87
HCI-019, days in culture: 131	2.64	3.89	2.09	3.03	1.34	2.65	0.638	3.16
HCI-019, days in culture: 152	2.72	2	2.1	1.49	0.853	1.05	0.336	1.84
HCI-025, days in culture: 172	2.24	1.37	1.16	0.15	0.319	0.166	0.0157	1.82
HCI-025, days in culture: 209	1.87	1.95	1.01	0.628	0.388	0.374	0.241	1.9
HCI-025, days in culture: 218	1.84	1.78	1.79	1.23	0.859	0.811	0.542	1.83

CTG-3D luminescence at 96 h
Details	12.5 pM	0.00025 µM	0.005 µM	0.1 µM	1 µM	10 µM	100 µM	625 fM
HCI-003.E2	2.21	2.35	2.12	2.07	1.98	2.07	1.08	2.08
HCI-005.E2	1.74	1.66	1.74	1.77	1.79	1.51	1.29	1.76
HCI-011.E2	1.4	1.53	1.16	1.61	1.34	1.59	0.956	1.72

NC1(C(=O)N[C@@H](CCO)c2ccc(Cl)cc2)CCN(c2nc[nH]c3nccc2-3)CC1 [capivasertib]
CTG-3D luminescence at 96 h
Details	12.5 pM	0.00025 µM	0.005 µM	0.1 µM	1 µM	10 µM	100 µM	625 fM
HCI-011.E2, days in culture: 74	1.84	2.07	2.01	1.54	1	0.548	0.307	2.49
HCI-016, days in culture: 153	3.06	1.93	2.64	2.32	2.43	1.43	0.426	2.85
HCI-016, days in culture: 172	2.38	1.35	1.88	1.56	1.72	1.44	0.453	1.75
HCI-016, days in culture: 190	1.81	1.24	1.5	0.925	1.13	1.1	0.565	1.47
HCI-016, days in culture: 199	1.58	1.48	1.5	1.6	1.44	0.914	0.407	1.79
HCI-019, days in culture: 110	1.22	1.74	1.4	1.97	0.842	1.18	0.332	1.92
HCI-019, days in culture: 131	2.99	3.67	2.98	3.31	1.45	1.63	0.521	4.08
HCI-019, days in culture: 152	2.96	2.9	2.96	1.68	0.946	0.895	0.274	2.6
HCI-025, days in culture: 172	2.76	1.4	3.17	1.35	1.43	0.474	0.354	2.57
HCI-025, days in culture: 209	1.74	1.99	1.44	0.818	0.472	0.37	0.266	1.74
HCI-025, days in culture: 218	1.88	2.08	1.82	1.2	0.565	0.592	0.288	1.69

CTG-3D luminescence at 96 h
Details	12.5 pM	0.00025 µM	0.005 µM	0.1 µM	1 µM	10 µM	100 µM	625 fM
HCI-003.E2	2.4	2.22	2.03	1.76	0.832	0.479	0.0376	2.12
HCI-005.E2	1.64	1.67	1.86	2.16	1.02	0.59	0.467	1.73
HCI-011.E2	1.63	1.67	1.43	1.63	1.05	0.559	0.275	1.8
